According to US20100075852A1, “HERBICIDE COMBINATION COMPRISING DIMETHOXYTRIAZINYL-SUBSTITUTED DIFLUOROMETHANESULFONYLANILIDES” (BAYER CROPSCIENCE AG, priority 2008, published 2010):
Where two headings read alike, the source gives them in different places.

How the values were obtained:
Assay in all cases: Post-emergence action against weeds, greenhouse pot test, visual scoring
Type in all cases: in vivo
[1] = test system: Setaria viridis (SETVI); settings: 504 h, SETVI, 21 DAT, read-out: % activity found
Experimental: (§1) Seeds or rhizome pieces of mono- and dicotyledonous harmful and useful plants were placed in peat pots (diameter 4 cm) filled with sandy loam and then covered with soil. The pots were kept in a greenhouse under optimum conditions. In addition, harmful plants encountered in paddy rice cultivation were cultivated in pots with a water level 2 cm above the soil surface.
(§2) About three weeks after the start of the cultivation, the test plants were treated at the 2- to 3-leaf stage. The herbicides, formulated as powder or liquid concentrates, were, either alone or in the combinations according to the invention, sprayed in various dosages on to the green parts of the plants using an application rate of 600 l of water/ha (converted). For further cultivation of the plants, the pots were then again kept under optimum conditions in a greenhouse.
(§3) The visual scoring of the herbicidal effects was carried out in intervals up to 21 days after the treatment. Scoring was carried out in percent in comparison to the untreated control plants. 0%=no herbicidal activity, 100%=complete herbicidal activity=complete kill.
(§4) The percentages from the treatments with the herbicides alone (=individual application) and with the combinations according to the invention (=mixtures) were employed to calculate interactions using the method of Colby. When the observed efficacies of the mixtures exceed the formal sum of the values of the tests with individual applications, they also exceed the expected value according to Colby, which is calculated using the formula below (cf. S. R. Colby; in Weeds 15 (1967) pp. 20 to 22):
(§5) • A, B=activity of components A and B in percent at a dosage of a and b g of ai/ha (=gramm of active substance per hectare), respectively. • E=expected value in % at a dosage of a+b g of ai/ha.

[2] = test system: Oryza sativa (ORYSA); settings: ORYSA, read-out: % activity found; for inhibition at 4 g/ha: 4 g of ai/ha alone; for inhibition at 12 g/ha: 12 g of ai/ha alone
Experimental: as §1, §2, §3, §4, §5

[3] = test system: Alopecurus myosuroides (ALOMY); settings: ALOMY, read-out: % activity found; for inhibition at 4 g/ha: 4 g of ai/ha alone; for inhibition at 12 g/ha: 12 g of ai/ha alone
Experimental: as §1, §2, §3, §4, §5

[4] = test system: Lolium multiflorum (LOLMU); settings: LOLMU; for inhibition at 4 g/ha / inhibition at 12 g/ha: Lolium multiflorum, post-emergence, read-out: % activity found; for inhibition at 4 g/ha: 4 g of ai/ha alone; for inhibition at 12 g/ha: 12 g of ai/ha alone
Experimental: as §1, §2, §3
(§6) The percentages from the treatments with the herbicides alone (=individual application) and with the combinations according to the invention (=mixtures) were employed to calculate interactions using the method of Colby.
as §5

[5] = test system: Avena fatua (AVEFA); settings: AVEFA; for inhibition at 4 g/ha / inhibition at 12 g/ha: Avena fatua, post-emergence, read-out: % activity found; for inhibition at 4 g/ha: 4 g of ai/ha alone; for inhibition at 12 g/ha: 12 g of ai/ha alone
Experimental: as §1, §2, §3, §6, §5

[6] = test system: Abuthilon theophrasti (ABUTH); settings: 21 DAT, rate (5) A-1 12
Experimental: as §1, §2, §3, §6, §5

[7] = test system: Matricaria inodora (MATIN); settings: MATIN, 21 DAT
Experimental: as §1, §2, §3, §6, §5

[8] = test system: Zea mays (ZEAMX); settings: ZEAMX; for inhibition at 4 g/ha / inhibition at 12 g/ha: Zea mays, post-emergence, read-out: % activity found; for inhibition at 4 g/ha: 4 g of ai/ha alone; for inhibition at 12 g/ha: 12 g of ai/ha alone
Experimental: as §1, §2, §3, §6, §5

[9] = test system: Triticum aestivum (TRZAS); settings: for (7) activity found: rate (5) A-1 12; for inhibition at 4 g/ha / inhibition at 12 g/ha: Triticum aestivum, post-emergence, read-out: % activity found; for inhibition at 4 g/ha: 4 g of ai/ha alone; for inhibition at 12 g/ha: 12 g of ai/ha alone
Experimental: as §1, §2, §3, §6, §5

[10] = test system: Stellaria media (STEME); settings: 10 DAT
Experimental: as §1, §2, §3, §6, §5

[11] = test system: Cyperus esculentus (CYPES); settings: CYPES, 21 DAT
Experimental: as §1, §2, §3, §6, §5

[12] = test system: Veronica persica (VERPE); settings: 21 DAT, rate (5) A-1 12
Experimental: as §1, §2, §3, §6, §5

[13] = test system: Pharbitis purpurea (PHBPU); settings: 21 DAT
Experimental: as §1, §2, §3, §6, §5

[14] = test system: Fallopia (ex Polygonum) convolvulus (POLCO); settings: POLCO, 21 DAT
Experimental: as §1, §2, §3, §6, §5

[15] = test system: Viola tricolor (VIOTR); settings: for (7) activity found: rate (5) A-1 12
Experimental: as §1, §2, §3, §6, §5

SMILES: COc1nc(OC)nc(C(=O)c2cccc(F)c2N(C)S(=O)(=O)C(F)F)n1 [A-1]
- inhibition at 4 g/ha ([1]; 4 g of ai/ha alone): 0%
- inhibition at 12 g/ha ([1]; 12 g of ai/ha alone): 20%
- inhibition at 4 g/ha ([2]; 240 h, 10 DAT): 10%
- inhibition at 12 g/ha ([2]; 240 h, 10 DAT): 10%
- inhibition at 4 g/ha ([2]; 504 h, 21 DAT): 0%
- inhibition at 12 g/ha ([2]; 504 h, 21 DAT): 10%
- inhibition at 4 g/ha ([3]; 240 h, 10 DAT): 40%
- inhibition at 12 g/ha ([3]; 240 h, 10 DAT): 40%
- inhibition at 4 g/ha ([3]; 504 h, 21 DAT): 40%
- inhibition at 12 g/ha ([3]; 504 h, 21 DAT): 50%
- (7) activity found ([4]; 10 DAT, rate (5) A-1 4): 0%
- (7) activity found ([4]; 10 DAT, rate (5) A-1 12): 10%
- inhibition at 4 g/ha ([4]; 240 h, 10 DAT): 0%
- inhibition at 12 g/ha ([4]; 240 h, 10 DAT): 10%
- inhibition at 4 g/ha ([4]; 504 h, 21 DAT): 0%
- inhibition at 12 g/ha ([4]; 504 h, 21 DAT): 10%
- (7) activity found ([5]; 21 DAT, rate (5) A-1 4): 10%
- (7) activity found ([5]; 21 DAT, rate (5) A-1 12): 30%
- inhibition at 4 g/ha ([5]; 240 h, 10 DAT): 40%
- inhibition at 12 g/ha ([5]; 240 h, 10 DAT): 50%
- inhibition at 4 g/ha ([5]; 504 h, 21 DAT): 10%
- inhibition at 12 g/ha ([5]; 504 h, 21 DAT): 30%
- (7) activity found [6]: 85%
- (7) activity found ([7]; rate (5) A-1 4): 50%
- (7) activity found ([7]; rate (5) A-1 12): 60%
- inhibition at 4 g/ha ([7]; Tripleurospermum inodorum, post-emergence, 504 h, 4 g of ai/ha alone, read-out: % activity found): 50%
- inhibition at 12 g/ha ([7]; Tripleurospermum inodorum, post-emergence, 504 h, 12 g of ai/ha alone, read-out: % activity found): 60%
- (7) activity found ([8]; 10 DAT, rate (5) A-1 4): 0%
- (7) activity found ([8]; 10 DAT, rate (5) A-1 12): 0%
- (7) activity found ([8]; 21 DAT, rate (5) A-1 4): 0%
- (7) activity found ([8]; 21 DAT, rate (5) A-1 4 (Table 80)): 0%
- (7) activity found ([8]; 21 DAT, rate (5) A-1 12): 0%
- (7) activity found ([8]; 21 DAT, rate (5) A-1 12 (Table 80)): 0%
- inhibition at 4 g/ha ([8]; 240 h, 10 DAT): 0%
- inhibition at 12 g/ha ([8]; 240 h, 10 DAT): 0%
- inhibition at 4 g/ha ([8]; 504 h, 21 DAT): 0%
- inhibition at 12 g/ha ([8]; 504 h, 21 DAT): 0%
- (7) activity found ([9]; 10 DAT): 0%
- (7) activity found ([9]; 21 DAT): 0%
- inhibition at 4 g/ha ([9]; 240 h, 10 DAT): 0%
- inhibition at 12 g/ha ([9]; 240 h, 10 DAT): 0%
- inhibition at 4 g/ha ([9]; 504 h, 21 DAT): 0%
- inhibition at 12 g/ha ([9]; 504 h, 21 DAT): 0%
- (7) activity found ([10]; rate (5) A-1 4): 70%
- (7) activity found ([10]; rate (5) A-1 12): 70%
- (7) activity found ([11]; rate (5) A-1 4): 80%
- (7) activity found ([11]; rate (5) A-1 12): 80%
- (7) activity found ([11]; rate (5) A-1 12 (Table 85)): 80%
- inhibition at 4 g/ha ([11]; Cyperus esculentus, post-emergence, 504 h, 4 g of ai/ha alone, read-out: % activity found): 80%
- inhibition at 12 g/ha ([11]; Cyperus esculentus, post-emergence, 504 h, 12 g of ai/ha alone, read-out: % activity found): 80%
- (7) activity found [12]: 40%
- (7) activity found ([13]; rate (5) A-1 4): 60%
- (7) activity found ([13]; rate (5) A-1 12): 65%
- inhibition at 4 g/ha ([14]; Fallopia convolvulus, post-emergence, 504 h, 4 g of ai/ha alone, read-out: % activity found): 75%
- inhibition at 12 g/ha ([14]; Fallopia convolvulus, post-emergence, 504 h, 12 g of ai/ha alone, read-out: % activity found): 70%
- (7) activity found ([14]; rate (5) A-1 4): 75%
- (7) activity found ([14]; rate (5) A-1 12): 70%
- (7) activity found ([15]; 10 DAT): 20%
- (7) activity found ([15]; 21 DAT): 10%
- inhibition at 4 g/ha ([15]; Viola tricolor, post-emergence, 504 h, 21 DAT, 4 g of ai/ha alone, read-out: % activity found): 0%
- inhibition at 12 g/ha ([15]; Viola tricolor, post-emergence, 504 h, 21 DAT, 12 g of ai/ha alone, read-out: % activity found): 10%
